Results taken from the METLIN SMRT retention time set (Domingo-Almenara et al. 2019).

Assay: gradient 5% acetonitrile 3 min, to 50% in 2 min, to 85% in 15 min, held 3 min, 100 µL/min
Conditions: column: Zorbax Extend-C18 2.1 x 50 mm; eluents: water / acetonitrile, 0.1% formic acid
In short: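 A Zorbax Extend-C18 column (2.1 × 50 mm, 1.8 μm) run at 100 μL/min with water and acetonitrile, both containing 0.1% formic acid, separated mixtures of ~100 pure standards. The HPLC was coupled to a quadrupole time-of-flight mass spectrometer operated in positive and negative ionization mode, with dead and dwell volumes of 40 μL and 900 μL. Each retention time was taken from a computationally picked adduct peak that was then manually inspected.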

SMILES	RP-LC retention time [s]
COc1ccc(CCNC(=O)C2=C3CCCN3c3ccccc3S2(=O)=O)cc1OC	765
Cc1ccc(CNCc2ccc3c(c2)n(C)c(=O)n3C)cc1	619
O=C(NCCc1ccccc1)C1=C2CCCN2c2ccc(F)cc2S1(=O)=O	909
CCOC(=O)CNC(=O)N1CCc2nc(-c3ccccc3)ncc2C1	720
CCOC(=O)c1scc(-c2ccc(C)cc2)c1S(=O)(=O)N1CCN(c2ccccn2)CC1	866
O=C(OCC(=O)c1ccc(Cl)cc1Cl)c1ccc2ccccc2n1	991
Cc1nn(CC(=O)N2CCCN(C)CC2)c(=O)c2nc(-c3ccccc3)sc12	606
O=C(COc1ccc(Cl)cc1Cl)NCc1ccsc1	920
O=C(Cc1csc2nc(-c3ccccc3)cn12)Nc1ccc(F)cc1	774
CCOc1ccc(NC(=O)N2CCC3(CC2)NC(=O)c2ccc(Cl)cc2N3C)cc1	904
COc1ccc(-n2nc3c(N4CCCC(C(=O)NCCc5ccccc5)C4)nnc(C)c3c2C)cc1 (stereo unspecified)	740
COc1ccccc1C(=O)NCCn1cc(SCC(N)=O)c2ccccc21	680
CCc1noc(NC(C)=O)c1-c1ccc(C)c(S(=O)(=O)Nc2ccc(C)cc2Cl)c1	914
CN(C)c1ncncc1N1CCC(C(=O)N2CCN(c3ccc(Cl)cc3)CC2)CC1	692
CCNc1cc(N2CCCC(CCC(=O)N3CCC(C(=O)OCC)CC3)C2)ncn1 (stereo unspecified)	646
CCn1cc(S(=O)(=O)N2CCO[C@@H](COc3ccccn3)[C@@H]2c2ccccc2)cn1	898
COC(=O)c1c(C)[nH]c(C(=O)N2CCCC(C(=O)NCCC(C)C)C2)c1C (stereo unspecified)	730
CCCNC(=O)c1cc2c(-c3cccs3)nn(-c3ccccc3)c2n1C	953
CCOC(=O)Nc1ccc2c(c1)CN(C(C)=O)CC2	628
CCC(C)C(=O)N1CCc2[nH]nc(C(=O)NCCCc3ccccc3)c2C1 (stereo unspecified)	781
Cc1ccc(CSc2nccc3c2ccn3CC(=O)N2CCN(c3ccccn3)CC2)cc1	604
O=C(Cn1c(=O)c(CCC(=O)NC2CC2)nc2ccccc21)Nc1cc(F)cc(F)c1	774

SMILES	RP-LC retention time [s]
CCN(CC)CCNC(=O)C1CCCN(c2ccc(-c3ccc(C)cc3)nn2)C1 (stereo unspecified)	590
Cc1cc(C(=O)NC(C)c2ccccc2)n(-c2ccccc2)n1 (stereo unspecified)	850
O=S(=O)(c1cc(Cl)ccc1Cl)N1CCc2nc(-c3ccc(F)cc3)ncc2C1	1240
Cn1c(C2CCN(C(=O)Nc3cccc(Cl)c3)CC2)cc(=O)n2nccc12	693
COc1cc(NC(=O)Cn2c(=O)n(-c3ccc(F)cc3)c3ncccc32)cc(OC)c1	849
O=C(NCCC1=CCCCC1)c1ccc(CN2CCN(C3CCCC3)C(=O)C2=O)cc1	836
O=C(Nc1ccccc1Br)C1CCCN(C(=O)c2ccccc2F)C1 (stereo unspecified)	860
O=C1COc2ccccc2N1Cc1nc(-c2ccc(OC(F)(F)F)cc2)no1	1100
CCOC(=O)CN1N=C(C(=O)N2CCC(C)CC2)S(=O)(=O)c2ccc(C)cc21	939
Cc1ncc2c(n1)C[C@@H]1CC[C@H]2N1C(=O)COc1ccc(F)cc1	675
CCC(C)NC(=O)c1nnn(Cc2cccc(Cl)c2)c1-n1cccc1 (stereo unspecified)	1040
O=C(c1cc2n(n1)CCCN(Cc1ccc(F)cc1)C2=O)N1CCN(c2ccccn2)CC1	802
Cc1cc(-c2csc(S(=O)(=O)N(Cc3cccs3)C3CCCC3)c2)on1	1190
Cc1ccc(-c2noc(-c3ccccc3S(=O)(=O)N3CCN(c4ccccn4)CC3)n2)cc1	862
O=C(Nc1ccccc1)N1CCC(n2cnc3cc(Cl)ccc3c2=O)CC1	784
CNC(=O)N1CCCN(C)c2ccccc21	484
COc1ccc2c(c1)C1(CCN(S(=O)(=O)c3cccs3)C1)C(=O)N2C (stereo unspecified)	871
O=C(CN1CCC2(CC1)N=C(c1ccc(F)cc1)C(=O)N2)Nc1ccc(F)cc1F	666
CCn1c(=O)sc2cc(S(=O)(=O)N3CCC(C(=O)NCc4ccc(F)cc4)CC3)ccc21	979
Cc1ccc(NS(=O)(=O)c2cccnc2Nc2ccc(Cl)cc2)cc1	1170
O=c1n(Cc2ccccc2)nc2c(S(=O)(=O)N3CCc4ccccc4C3)cccn12	942
CC(C)CCn1c(=O)oc2ccccc21	928

SMILES	RP-LC retention time [s]
CCC(C)NC(=O)CN1C(=O)CSc2c1c(C)nn2-c1ccccc1 (stereo unspecified)	764
Cc1cc(N2CCN(C(=O)c3ccc(Br)o3)CC2)nc(N2CCCCC2)n1	690
Cc1cc(C)n(-c2ccnc(NCC(C)C)n2)n1	747
Cc1c(C(=O)N2CCCCC2)cnn1-c1ccc(-c2nc(C3CC3)no2)cn1	1010
CCC(C(=O)NCc1ccc2c(c1)OCO2)n1ccc2cc(S(=O)(=O)N3CCCCC3)ccc21 (stereo unspecified)	1020
COc1ccccc1OCCN1C(=O)C2(CCOCC2)CC1c1nnnn1C(C)(C)C (stereo unspecified)	796
O=C(Cn1cccc1-c1nnc(-c2ccccc2)o1)N1CCN(C2CCCCC2)CC1	687
O=C(NCCCO)C(=O)Nc1ccc(Cl)c(C(F)(F)F)c1	795
COc1ccccc1CNC(=O)Cc1nnc(-c2ccccn2)o1	671
CC1(C(=O)NCc2ccccc2)CN(S(C)(=O)=O)CC(=O)N1Cc1ccc(Cl)cc1 (stereo unspecified)	858
O=C(N[C@H]1C[C@@H]2C[C@H]1CN2C(=O)Nc1ccc(C(F)(F)F)cc1)c1cccs1	840
O=C(c1ccc(Cn2cncn2)cc1)N1CCN(c2ccc(Cl)cc2)CC1	774
CNC(=O)N1CCCN(C2=NS(=O)(=O)C(c3ccc(C)c(C)c3)=C2C)CC1	711
CCn1nccc1C(=O)N1CCC[C@H]1c1nc(-c2ccccc2)n[nH]1	627
Cc1cccc(C)c1-n1ccn(Cc2nc(-c3ccc(F)cc3)no2)c(=O)c1=O	884
CN(C(=O)c1cc2c(=O)n(C)c(=O)n(C)c2s1)c1cccc(Cl)c1	827
Cc1cc(C)n(-c2ccc(C(=O)Nc3ccc(O)cc3)cn2)n1	738
Cc1sc(-c2noc(C(C)C)n2)cc1S(=O)(=O)N1CCC(C(=O)N2CCC(C)CC2)CC1	1150
Cn1cc(Cl)c(C(=O)N2CCCC2c2cccc(F)c2)n1 (stereo unspecified)	807
COc1ccc(S(=O)(=O)N2CCCC(C(=O)NCCO)C2)cc1C (stereo unspecified)	669
Cc1cc(OCC(=O)Nc2cccc(Cl)c2C)nc(N2CCN(c3ccccc3)CC2)n1	949
COc1ccc(N2CCN(C(=O)c3sc4ncccc4c3-n3cccc3)CC2)cc1	917
